Experiment: gradient 5% acetonitrile 3 min, to 50% in 2 min, to 85% in 15 min, held 3 min, 100 µL/min
Details: column: Zorbax Extend-C18 2.1 x 50 mm; eluents: water / acetonitrile, 0.1% formic acid
In short: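 The mobile phases were water and acetonitrile, each with 0.1% formic acid, pumped at 100 μL/min through a Zorbax Extend-C18 column (2.1 × 50 mm, 1.8 μm). Pure standards were injected as mixtures of ~100 molecules and detected by a quadrupole time-of-flight mass spectrometer in positive and negative ionization mode. Retention time came from computationally picked adduct peaks, each inspected by hand.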

| RP-LC retention time [s] | SMILES |
| --- | --- |
| 771 | Cc1cccn2c(=O)cc(OCC(=O)Nc3ccc(SC(F)F)cc3)nc12 |
| 900 | CC1=C(c2ccccc2)S(=O)(=O)N=C1N1CCCN(C(=O)c2ccc(F)c(F)c2)CC1 |
| 577 | O=C(Cn1ccc2c(SCc3ccccc3)nccc21)N1CCN(c2ccccn2)CC1 |
| 893 | COCCCN1C(=O)CSc2c(c3ccccc3n2C)C1C(=O)NCc1ccc(F)cc1 (stereo unspecified) |
| 863 | O=C(NCc1ccsc1)NC(c1ccccc1)c1ccccc1 |
| 600 | O=S(=O)(c1cccc2cccnc12)N1CC[C@@H]2COCCN(Cc3cccnc3)[C@@H]2C1 |
| 659 | COc1ccc(CNC(=O)CN2C(=O)NC3(CCCCC3)C2=O)cc1OC |
| 764 | Cc1cc(C)c(C(=O)N2CCC(CC(=O)NCCC(C)C)CC2)[nH]1 |
| 1150 | C=CCn1c(=O)c2ccccc2n(Cc2nc(-c3ccc(Br)cc3)no2)c1=O |
| 591 | COc1ccc(S(=O)(=O)N2CCCC(C(=O)NCc3cccnc3)C2)cc1OC (stereo unspecified) |
| 984 | Cc1cccc(NC(=O)N2CCCC2c2nc(-c3ccccc3)no2)c1 (stereo unspecified) |
| 735 | COc1cc(NC(=O)COc2nc(C)nc3ccccc23)cc(OC)c1 |
| 828 | COc1ccc(-c2ccc3nc(N4CCC(C(=O)N(C)C)CC4)sc3n2)cc1 |
| 895 | Cc1noc(-c2cccnc2SCC(=O)Nc2cccc(Br)c2)n1 |
| 718 | CC(C(=O)N1CCOCC1)C1CCN(C(=O)c2ccc3nc(-c4ccccc4)oc3c2)CC1 (stereo unspecified) |
| 715 | CCCC(NC(=O)c1cccc(C)c1)C(=O)Nc1nc2ccccc2[nH]1 (stereo unspecified) |
| 908 | Cc1cc(Cl)ccc1NC(=O)N1C[C@@H](F)C[C@H]1C(=O)N1CCc2ccccc2C1 |
| 799 | O=C(CCC(=O)c1ccc(F)cc1)Nc1cnn(-c2ncc(N3CCCC3)cn2)c1 |
| 1110 | COc1ccc(N2CCN(c3cc(SCC(=O)Nc4ccccc4Cl)ncn3)CC2)cc1 |
| 604 | Cc1scc2nc(C3CCC3)nc(N3CCC(C(=O)NCc4ccc(N(C)C)cc4)CC3)c12 |
| 737 | COc1ccc(NC(=O)c2cn3c(n2)CSCC3)cc1Cl |
| 788 | CC(C)N1CCn2cc(S(=O)(=O)NCc3ccc(F)cc3Cl)cc2C1=O |
| 666 | CC(=O)N1CCc2nn(CC(=O)Nc3cccc(Br)c3)c(=O)cc2C1 |

| RP-LC retention time [s] | SMILES |
| --- | --- |
| 682 | COc1cccc(-c2ccc(=O)n(Cc3nc(-c4cccc(OC)c4)no3)n2)c1 |
| 684 | Cc1ccc(F)c(-n2cc(C(=O)O)nn2)c1 |
| 567 | CCN1CCN(c2ccc(NC(C)=O)cn2)C1=O |
| 668 | CC1Cc2cc(S(=O)(=O)N3CCN(c4ccccn4)CC3)ccc2N1C(=O)C1CC1 (stereo unspecified) |
| 822 | CCc1ccc(NC(=O)Cn2nc(C(=O)N3CCOCC3)c3ccccc32)cc1 |
| 722 | Cc1cccc(NC(=O)Cc2cn(C)c3ncccc23)c1 |
| 679 | COc1ccc(-c2ncc3c(=O)n(Cc4ccccc4C)c(=O)n(C)c3n2)cc1 |
| 846 | CCOCCCNC(=O)COc1nc(C)nc2onc(-c3ccccc3)c12 |
| 1020 | CN1C(=O)C2CCCCN2c2ccc(C(=O)N3CCN(c4ccc(Cl)cc4)CC3)cc21 (stereo unspecified) |
| 910 | COc1ccc(C2CC(=O)N(c3ccc(F)c(F)c3)C(=O)C2)cc1 |
| 919 | Cc1nn2c(CNS(=O)(=O)Cc3ccccc3Cl)c(-c3ccccc3)nc2s1 |
| 736 | COc1ccc(-c2n[nH]c3c2C(c2ccc(OC)cc2OC)NC3=O)cc1 (stereo unspecified) |
| 1140 | CC(C)c1nc(-n2cccc2)sc1C(=O)NCc1ccccc1 |
| 663 | CN(C)c1nc2ncn3c(=O)n(CC(=O)NC4CCCCC4)nc3c2s1 |
| 1230 | Cc1cc(C)cc(NS(=O)(=O)c2cc(-c3cc(C(F)(F)F)on3)sc2C)c1 |
| 582 | CC1CCCCN1CCNC(=O)C1CCN(c2nc3cccnc3s2)CC1 (stereo unspecified) |
| 599 | O=C(NCc1cccc(Br)c1)c1ccc2c(c1)ncn2CCN1CCCC1 |
| 537 | O=C(O)C1CCCN(c2cc(-n3ccnc3)ncn2)C1 (stereo unspecified) |
| 917 | CCC(C)N(CC(=O)N(Cc1ccco1)CC1CCCO1)C(=O)c1ccc(C)cc1 (stereo unspecified) |
| 659 | Cc1ccccc1-c1nc2cnccn2c1NCCC(=O)NC(C)c1cccs1 (stereo unspecified) |
| 652 | Cn1nc(C(=O)N2CCOCC2)c2c1CCN(C(=O)CCC(=O)NC1CCCCCC1)C2 |
| 812 | CCC(=O)Nc1nc(-c2ccc3c(c2)N(CC)C(=O)CO3)c(C)s1 |
| 1340 | CCOc1ccc(C2Cn3nnc(-c4nc(-c5ccc(C(F)(F)F)cc5)no4)c3CO2)cc1 (stereo unspecified) |

| RP-LC retention time [s] | SMILES |
| --- | --- |
| 668 | O=C(N1CCOCC1)N1CCN(S(=O)(=O)c2cccc([N+](=O)[O-])c2)CC1 |
| 666 | CCCNc1cc(N2CCC(CCC(=O)NCc3ccccc3)CC2)ncn1 |
| 867 | O=C(CSc1nnc(-c2ccc(Cl)cc2)o1)Nc1nccs1 |
| 780 | Cc1ccc(-n2c(=O)n(CC(=O)N3CCCCC3)c3cccnc32)cc1 |
| 620 | O=C(c1ccccc1Cl)N1CCC(n2cnnc2C2CC2)CC1 |
| 888 | Cc1cccc(Sc2nccnc2N2CCC(C(=O)NCC3CCCO3)CC2)c1 (stereo unspecified) |
| 803 | CC(=O)Nc1cc(-c2nc(-c3ccc4oc(C)nc4c3)no2)ccc1C |
| 823 | COc1ccc(OC)c2[nH]c(C(=O)N3CCCC3)cc12 |
| 595 | CCn1cc(CC(=O)NC(C)C)c2cccnc21 |
| 868 | CCCN1C(=O)c2c(C(=O)NCc3ccc(Cl)cc3)ncn2CC1(C)C(=O)NCCC(C)C (stereo unspecified) |
| 832 | CN(Cc1cc(Br)cc(Br)c1N)C1CCCCC1 |
| 826 | COc1ccccc1CNc1c(-c2ccc(OC(C)C)cc2)nc2ncccn12 |
| 587 | Cn1cnnc1CC1CCN(C(=O)Nc2ccccc2)C1 (stereo unspecified) |
| 589 | O=C(CSc1nccn1Cc1ccco1)NC1CCCCC1 |
| 604 | COC(=O)c1c(C)[nH]c(C(=O)N2CCC(CC(=O)NCCC(C)N3CCCCCC3)CC2)c1C (stereo unspecified) |
| 706 | C=CCNC(=O)C1CCN(C(=O)Nc2ccc(NC(=O)Nc3cccc(F)c3)cc2)CC1 |
| 663 | Cn1ccc2cc(S(=O)(=O)N3CCCC(C(=O)N4CCN(c5ccccn5)CC4)C3)ccc21 (stereo unspecified) |
| 815 | CCCn1cc(CCNC(=O)c2ccc(C)c(F)c2)c2cccnc21 |
| 932 | Cc1ccc(F)c(NS(=O)(=O)c2cn(CC(C)C)c3ncccc23)c1 |
| 678 | Cn1nc(-c2cccc(NC(=O)c3cccs3)c2)ccc1=O |
| 848 | O=C(NCC1CC1)c1cn(-c2cc(-c3nc(C4CC4)no3)ccn2)cn1 |
| 579 | CCNC(=O)NCC1CCN(S(=O)(=O)C2CC2)CC1 |
| 883 | CCOc1ccc(CC(=O)N2CCN(c3ccc(-c4nc(C)cs4)cn3)CC2)cc1 |

| RP-LC retention time [s] | SMILES |
| --- | --- |
| 977 | CC1CCCN(S(=O)(=O)c2ccc(-c3nnc(C(C)C)o3)o2)C1 (stereo unspecified) |
| 575 | COc1ccccc1N1CCN(CCCNc2cc(C(=O)O)c3ccccc3n2)CC1 |
| 739 | CC(C)c1noc(COC2CCN(C(=O)NCc3ccco3)CC2)n1 |
| 811 | CCn1cc(C)c(C(=O)O)c1CC(=O)N1CCCc2ccccc21 |
| 919 | CCC[C@@H](NC(=O)N1C(=O)C(CC)(CC)[C@@H]1Oc1ccc(C(=O)N2CCN(C)CC2)cc1)c1ccc2c(c1)OCO2 |
| 603 | COc1ccc(N2CCN(C(=O)c3cn4ccccc4n3)CC2)cc1 |
| 576 | O=C(N[C@@H]1CN(C(=O)C2CC2)CC[C@@H]1CO)C1CC1 |
| 866 | COc1ccc(-n2c(=O)n(C)c(=O)c3cc(C(=O)Nc4ccc(F)cc4C)cnc32)cc1 |
| 825 | O=C(NCc1ccccc1)N1CCN(Cc2nc3cc(-c4ccccc4)ccc3o2)CC1 |
| 505 | CCC(=O)NCc1nc2c(n1C)CN(C(=O)c1ccccc1Br)CC2 |
| 1210 | Cc1cc(C)c(-c2csc(Nc3ccc(F)cn3)n2)cc1C |
| 666 | CC(C)NC(=O)C1CCCN(c2nc3ncn(CC(=O)NC4CCCCC4)c(=O)c3s2)C1 (stereo unspecified) |
| 634 | CCC(C)NC(=O)N1CCN(c2cc(-c3cccc(OC)c3)ncn2)CC1 (stereo unspecified) |
| 951 | COc1ccc(-c2csc3c(=O)n(Cc4ccc(F)cc4)cnc23)cc1OC |
| 714 | O=C(CSc1cc(-n2ccc(C(=O)NC3CC3)n2)ncn1)Nc1ccc2c(c1)OCO2 |
| 818 | COc1cccc(NC(=O)NC2CCN(c3ccc(F)c(C)c3)C2=O)c1 (stereo unspecified) |
| 569 | O=C(NCC(c1ccsc1)N1CCc2ccccc2C1)c1cccs1 (stereo unspecified) |
| 1020 | CCOC(=O)Cc1ccc(NC(=O)N2CCc3cn(CC)c4cccc(c34)C2)cc1 |
| 669 | CCCN(Cc1ccc(Cl)cc1)Cc1cc(=O)n2ccc(C)cc2n1 |
| 694 | CCCN(CCC)C(=O)C1CCN(S(=O)(=O)c2ccc3c(c2)CCCC(=O)N3)CC1 |
| 953 | CCc1cccc(NC(=O)C2CCN(S(=O)(=O)c3ccc4c(c3)sc(=O)n4C(C)C)CC2)c1 |

| SMILES | RP-LC retention time [s] |
| --- | --- |
| COc1cccc(Cn2nnc(C(=O)O)c2C)c1 | 666 |
